From publication PMC10100771, “A Novel CMY Variant Confers Transferable High-Level Resistance to Ceftazidime-Avibactam in Multidrug-Resistant Escherichia coli” (Microbiology Spectrum, 2023)
Values after ≈ are worked out from the molar mass of the structure shown.

Tests used:
[1] = system: E. coli J53-AR13438; experiment: MIC by agar dilution, conjugant containing pAR13438_2; assay type: cell-based; details: Escherichia coli, J53AR13438, E. coli J53-AR13438 (blaCMY-178)
Procedure: (§1) Antimicrobial susceptibility testing was performed and interpreted according to the Clinical and Laboratory Standards Institute (CLSI) guidelines and breakpoints (M100, 31st edition) by the agar dilution method. E. coli ATCC 25922 and K. pneumoniae ATCC 700603 served as control strains.
(§2) Conjugation experiments were performed by filter mating using sodium-azide-resistant E. coli J53 as the recipient, as described previously. Transconjugants were selected with MH agar containing 100 μg/mL sodium azide and 4 μg/mL ceftazidime-avibactam; furthermore, transconjugants were named J53-AR13438 and J53-KPCZA02, respectively. We compared genomes of AR13438 and J53 to select a unique gene (gtrA) to J53. […] The primers used for PCR were gtrA-F, gtrA-R, CMY-F, and CMY-R (Table S1). The transfer frequencies were calculated as the number of transconjugants (CFU/mL) divided by the number of recipients (CFU/mL). Donors and recipients were mixed at 1:1 for the transfer frequency experiment. S1-PFGE and Southern blotting were performed to define the location of blaCMY-178 and confirm the transmission of the plasmid as described previously ([35]). The MIC profiles of transconjugants were also determined by the agar dilution method.

[2] = system: E. coli DH5α-pCR2.1; experiment: MIC by agar dilution, DH5α with blank vector pCR2.1; assay type: cell-based; details: Escherichia coli
Procedure: as §1
(§3) The antibiotics we used included meropenem (Hanhui Pharmaceutical Co., Ltd., China), imipenem (Merck Sharp & Dohme Corp., USA), cefepime (Jiangsu Hengrui Pharmaceutical Co., Ltd., China), piperacillin (Suzhou Erye Pharmaceutical Co., Ltd., China), ceftazidime (Guangdong Jincheng Jinsu Pharmaceutical Co., Ltd., China), tazobactam (Meilunbio, China), avibactam (MedChemExpress, USA), aztreonam (Sigma-Aldrich, USA), amikacin (Meilunbio), cefuroxime (Esseti Farmaceutici S.r.l., Italy), fosfomycin (Harbin Pharmaceutical Group Co., Ltd. China), levofloxacin (Daiichi Sankyo Company Limited, Beijing, China), and cefotaxime (North China Pharmaceutical Hebei Huamin Pharmaceutical Co., Ltd., China).
(§4) The blaCMY cloning was performed using a TA cloning kit (Invitrogen, Shanghai, China). The blaCMY-178 gene combined with its predicted promoter was amplified from isolate AR13438. Then, the blaCMY-178 gene was cloned into the linearized vector pCR2.1 using T4 DNA ligase (Invitrogen). The blaCMY-172 gene was cloned from KPCZA02 with the same method. The resulting plasmids were chemically transformed into E. coli DH5α. The positive transformants were identified by blue-white screening in MH agar containing 50 μg/mL kanamycin and were further confirmed by Sanger sequencing. The pCR2.1 blank vector was also transformed into E. coli DH5α as a control. The primers used for cloning were CMY-F and CMY-R (see Table S2 in the supplemental material). Relative CMY expression was measured by reverse transcription-quantitative PCR as described previously ([34]). Specific quantitative PCR (qPCR) primers (q-recA-F/R and q-CMY-F/R) were designed (Table S2).

[3] = system: E. coli J53; experiment: MIC by agar dilution, recipient E. coli J53; assay type: cell-based; details: Escherichia coli
Procedure: as §1, §3
Conjugation experiments were performed by filter mating using sodium-azide-resistant E. coli J53 as the recipient, as described previously. Transconjugants were selected with MH agar containing 100 μg/mL sodium azide and 4 μg/mL ceftazidime-avibactam; furthermore, transconjugants were named J53-AR13438 and J53-KPCZA02, respectively. We compared genomes of AR13438 and J53 to select a unique gene (gtrA) to J53. The blaCMY-178-postive transconjugants were confirmed by PCR and MALDI-TOF MS (see Fig. S9 in the supplemental material). The primers used for PCR were gtrA-F, gtrA-R, CMY-F, and CMY-R (Table S1). The transfer frequencies were calculated as the number of transconjugants (CFU/mL) divided by the number of recipients (CFU/mL). Donors and recipients were mixed at 1:1 for the transfer frequency experiment. S1-PFGE and Southern blotting were performed to define the location of blaCMY-178 and confirm the transmission of the plasmid as described previously ([35]). The MIC profiles of transconjugants were also determined by the agar dilution method.

[4] = system: E. coli strain AR13438; experiment: MIC by agar dilution, clinical isolate AR13438; assay type: cell-based, Escherichia coli; details: for MIC: Escherichia coli, AR13438, clinical E. coli isolate (blaCMY-178, blaTEM-1, blaCTX-M-27), agar dilution
Procedure: as §1, §3

[5] = system: E. coli J53-KPCZA02; experiment: MIC by agar dilution, conjugant containing pKPCZA02_4; assay type: cell-based; details: Escherichia coli, J53KPCZA02, E. coli J53-KPCZA02 (blaCMY-172)
Procedure: as §1, §2

[6] = system: E. coli DH5α; experiment: MIC by agar dilution, E. coli DH5α; assay type: cell-based; details: Escherichia coli
Procedure: as §1, §3

[7] = system: K. pneumoniae isolate KPCZA02; experiment: microbe, parasite or virus in culture; assay type: cell-based; details: Klebsiella pneumoniae
Procedure: as §1

[8] = system: E. coli DH5α-pCR2.1-CMY-178; experiment: MIC by agar dilution, transformant containing blaCMY-178; assay type: cell-based, Escherichia coli; details: Escherichia coli; E. coli DH5α-pCR2.1-CMY-178; agar dilution
Procedure: as §1, §3, §4

[9] = system: E. coli DH5α-pCR2.1-CMY-2; experiment: MIC by agar dilution, transformant containing blaCMY-2; assay type: cell-based; details: Escherichia coli
[10] = system: E. coli DH5α-pCR2.1-CMY-172; experiment: MIC by agar dilution, transformant containing blaCMY-172; assay type: cell-based; details: Escherichia coli
Procedure: as §1, §3, §4

[11] = molecular target: T1, CMY-172 (Klebsiella pneumoniae, UniProt Q48434, DEL310-312/N366I); experiment: Enzyme kinetics (substrate hydrolysis) of purified CMY-172; assay type: biochemical
T1 construct: were amplified without a signal peptide and cloned into the pET28a; His8 (N); made in house; host or cells: E. coli BL21(DE3)
Procedure: (§5) blaCMYs (including blaCMY-2, blaCMY-172, and blaCMY-178) were amplified without a signal peptide and cloned into the pET28a, which led to the introduction of an N-terminal His8-Tag.The recombinant plasmids were transformed into E. coli BL21(DE3) and selected using Sanger sequencing. Lysogenic broth containing 50 μg/mL kanamycin was inoculated with transformants and grown to reach an OD600 of 0.6. A final concentration of 1 mM isopropyl-β-D-thiogalactopyranoside (IPTG) was added into the resulting culture, which was shaken at 18°C overnight. The culture broth was centrifuged to harvest bacteria. The pellet was resuspended in lysis buffer (50 mM Tris-HCl and 300 mM NaCl (pH 7.5)) and disrupted using a JN-02C French press (JNBIO, Guangzhou, China) at 1,100 bar. Then, the cell debris was removed by centrifugation at 11,000 rpm for 40 min at 4°C. The supernatant was added to an Ni column, and the absorbed protein was eluted by the eluent buffer (lysis buffer with 300 mM imidazole). SDS-PAGE confirmed the protein purity of the eluent (>95%), and the sample was loaded onto a pre-equilibrated Superdex 200 column to eliminate imidazole.
(§6) Enzymatic activities were measured using a D8 UV-visible spectrophotometer (Rumqee, Shanghai, China) in phosphate-buffered saline (PBS; pH 7.2) at room temperature. Substrates tested included nitrocefin, ceftazidime, and avibactam. The extinction coefficient and wavelength of nitrocefin are 17,400 M^−1 · cm^−1 and 482 nm, respectively. […] The initial reaction velocities (v) were measured and Ki values were calculated by fitting data into equation 1 with GraphPad Prism v9.0.0 ([37]). (1) v=Vmax[S]/[S]+Km NCF (1+[I]/Ki)

[12] = molecular target: T2, CMY-178 (Klebsiella pneumoniae, UniProt Q48434, DEL310-312/N366I/N90T); experiment: Enzyme kinetics (substrate hydrolysis) of purified CMY-178; assay type: biochemical, Escherichia coli
T2 construct: were amplified without a signal peptide and cloned into the pET28a; His8 (N); made in house; host or cells: E. coli BL21(DE3)
Procedure: as §5, §6

[13] = system: O=C(Cc1cccs1)N[C@@H]1C(=O)N2C(C(=O)O)=C(/C=C/c3ccc([N+](=O)[O-])cc3[N+](=O)[O-])CS[C@H]12; experiment: Enzyme kinetics (substrate hydrolysis) of purified CMY-2; assay type: biochemical; details: other: CMY-2, PBS pH 7.2, room temperature, mean ± SD, three experiments
Procedure: as §5, §6

[14] = CMY-172, PBS pH 7.2, room temperature, mean ± SD, three experiments
[15] = CMY-178, PBS pH 7.2, room temperature, mean ± SD, three experiments

Compound	MIC [1] [µg/mL]	MIC [2] [µg/mL]	MIC [3] [µg/mL]	MIC [4] [µg/mL]	MIC [5] [µg/mL]	MIC [6] [µg/mL]	MIC [7] [µg/mL]	MIC [8] [µg/mL]	MIC [9] [µg/mL]	Antimicrobial susceptibility category ([4]; AR13438, CLSI breakpoints (M100, 31st edition))	MIC [10] [µg/mL]	Kcat [11, 14] [s⁻¹]	Km [11, 14] [µM]	Decrease of kcat/Km compared with CMY-2 ([11]; CMY-172 vs CMY-2)	Kcat [12, 15] [s⁻¹]	Km [12, 15] [µM]	Decrease of kcat/Km compared with CMY-2 ([12]; CMY-178 vs CMY-2)	Km [13] [µM]	kcat [13] [s⁻¹]	kcat/Km [13] [M⁻¹ s⁻¹]
C[C@@H]1O[C@@H]1P(=O)(O)O [FOS, fosfomycin]	0.5 (≈ 3.62 µM)	0.25 (≈ 1.81 µM)	0.5 (≈ 3.62 µM)	1 (≈ 7.24 µM)	0.5 (≈ 3.62 µM)	0.25 (≈ 1.81 µM)	> 1020													
C[C@@H](O)[C@H]1C(=O)N2C(C(=O)O)=C(SCCN=CN)C[C@H]12 [IMP, imipenem]	0.5 (≈ 1.67 µM)		0.5 (≈ 1.67 µM)	1 (≈ 3.34 µM)	0.5 (≈ 1.67 µM)	0.25 (≈ 0.835 µM)	64 (≈ 214 µM)													
C[C@H]1COc2c(N3CCN(C)CC3)c(F)cc3c(=O)c(C(=O)O)cn1c23 [LEV, levofloxacin]	0.03 (≈ 0.083 µM)	0.03 (≈ 0.083 µM)	0.03 (≈ 0.083 µM)	32 (≈ 88.6 µM)	0.03 (≈ 0.083 µM)	0.03 (≈ 0.083 µM)	32 (≈ 88.6 µM)	0.06 (≈ 0.166 µM)	0.06 (≈ 0.166 µM)	resistant										
C[C@@H](O)[C@H]1C(=O)N2C(C(=O)O)=C(S[C@@H]3CN[C@H](C(=O)N(C)C)C3)[C@H](C)[C@H]12 [MEM, meropenem]	0.06 (≈ 0.156 µM)	0.03 (≈ 0.0782 µM)	0.03 (≈ 0.0782 µM)	0.125 (≈ 0.326 µM)	0.06 (≈ 0.156 µM)	0.03 (≈ 0.0782 µM)	128 (≈ 334 µM)	0.06 (≈ 0.156 µM)			0.06 (≈ 0.156 µM)									
O=C(Cc1cccs1)N[C@@H]1C(=O)N2C(C(=O)O)=C(/C=C/c3ccc([N+](=O)[O-])cc3[N+](=O)[O-])CS[C@H]12 [NCF, nitrocefin]												52.41 ± 2.65	12 ± 0.66	approximately 3 fold	55.81 ± 1.04	12.5 ± 0.31	approximately 3 fold			
CCN1CCN(C(=O)N[C@@H](C(=O)N[C@@H]2C(=O)N3[C@@H]2SC(C)(C)[C@@H]3C(=O)O)c2ccccc2)C(=O)C1=O [PIP, piperacillin]	64 (≈ 124 µM)	1 (≈ 1.93 µM)	4 (≈ 7.73 µM)	> 256	64 (≈ 124 µM)	1 (≈ 1.93 µM)	> 256	256 (≈ 495 µM)	256 (≈ 495 µM)		256 (≈ 495 µM)									
CMY-2 (Klebsiella pneumoniae)																		59.88 ± 2.59	732 ± 16.1	1.22e+07 ± 600000
